Data published in article PMC7949049 (The Journal of Biological Chemistry, 2020).
Entries after “also recorded” stand apart in the source; their conditions may differ. Positions of bridges follow the written chain, without caps; N, C: chain ends. Non-standard residues stand in square brackets, D forms with d. Residues, ends and D or L forms follow the SMILES beside them. No end group written: not given here. *: point of attachment. 5FAM = O=C1OC2(c3ccc(O)cc3Oc3cc(O)ccc32)c2ccc(C(=O)*)cc21; S5 = C=CCCC[C@](C)(N)C(=O)O; PEG2 = NCCOCCOCCC(=O)O

Tests used:
RalA·GDP = target: T1, RalA·GDP (Homo sapiens, UniProt P11233, Q72L); assay: Direct-binding fluorescence polarization, RalA·GDP; details: 20 nM FAM-labeled peptide, n = 3, NB = no binding; for Kd: read-out: Kd RalA·GDP, FP
T1 construct: RalA (pMAT10, residues 1–184, Q72L); His6-MBP (cleaved yes); made in house
T1 sequence (P11233 1-184 Q72L): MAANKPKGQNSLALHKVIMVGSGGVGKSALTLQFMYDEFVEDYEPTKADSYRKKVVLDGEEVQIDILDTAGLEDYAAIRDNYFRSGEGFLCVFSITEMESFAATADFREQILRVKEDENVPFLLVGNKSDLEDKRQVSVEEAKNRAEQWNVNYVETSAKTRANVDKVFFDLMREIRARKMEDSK
Experimental: (§1) FP experiments were performed on a BMG Labtech Pherastar fluorimeter at 298 K with excitation at 485 nm and emission at 520 nm as described previously ([34]), using 20 nM FAM-labeled peptide. Plates were read after 30 min incubation at room temperature. Data were fitted to a single-site binding model using nonlinear regression analysis in GraphPad prism 8.4 to obtain Kd values and their standard errors.

RhoA·GMPPNP = target: T2, RhoA·GMPPNP (Homo sapiens, UniProt P61586, F25N/Q63L); assay: Direct-binding fluorescence polarization, RhoA; details: 20 nM FAM-labeled peptide, n = 3, NB = no binding, GTPase up to 100 μM; for Kd: read-out: Kd RhoA·GMPPNP, FP
T2 construct: RhoA (pGEX-2T, 1–186, F25N/Q63L); GST (cleaved yes); made in house
T2 sequence (P61586 1-186 F25N/Q63L): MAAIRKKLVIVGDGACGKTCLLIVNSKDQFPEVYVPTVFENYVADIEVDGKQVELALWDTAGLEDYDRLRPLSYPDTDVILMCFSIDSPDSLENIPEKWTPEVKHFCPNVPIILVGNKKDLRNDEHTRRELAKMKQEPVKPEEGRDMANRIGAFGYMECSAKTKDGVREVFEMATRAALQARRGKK
Experimental: as §1

Rac1·GMPPNP = target: T3, Rac1·GMPPNP (Homo sapiens, UniProt P63000, Q61L); assay: Direct-binding fluorescence polarization, Rac1; details: 20 nM FAM-labeled peptide, n = 3, NB = no binding, GTPase up to 100 μM; for Kd: read-out: Kd Rac1·GMPPNP, FP
T3 construct: Rac1 (pGEX-2T, 1–185, Q61L); GST (cleaved yes); made in house
Experimental: as §1

RalA = assay: Direct-binding SPA of RalA to His-tagged RLIP76 RBD variants; details: 80 nM His-tagged RBD, n = 2; for apparent Kd RalA, direct SPA (Fig. S1): [3H]GTP-labelled RalA titrated, experiment of Fig. S1
Experimental: Ral proteins were labeled with [^3H]GTP for use in SPAs as follows. [^3H]GTP (0.15 mCi, PerkinElmer Life Sciences) was dried by centrifugal evaporation. Ral (0.7 mg) and 0.3 M (NH4)2SO4 were added in 140 μl of buffer (10 mM Tris-HCl, 150 mM NaCl, 1 mM DTT, pH 7.5). The mixture was incubated at 37 °C for 3 h, and unbound nucleotide was removed with Sephadex G25 spin columns (GE Healthcare).
[^3H]GTP·Ral proteins were titrated at the concentrations indicated in the results. […] The equilibrium binding constants (Kd) for the effector–Ral interactions were determined by monitoring the SPA signal in the presence of varying concentrations of [^3H]GTP·Ral and fitted using nonlinear regression with the computer program Grafit.

[1] = target: T4, RalA (residues 1-184, Q72L) (UniProt P11233 1-184, Q72L); assay: fluorescence polarisation; direct binding of 20 nM FAM-labelled peptide to varying concentrations of small GTPase; 298 K; read after 30 min at room temperature; single-site binding model; n >= 2; details: both partners purified
T4 construct: RalA small GTPase, residues 1-184, constitutively active Q72L; Loaded with [3H]GTP for the SPAs; also called [3H]GTP-labelled RalA; source: expressed from pMAT10 as His6-MBP fusion, prepared and cleaved from its tags as described previously
T4 sequence (looked up): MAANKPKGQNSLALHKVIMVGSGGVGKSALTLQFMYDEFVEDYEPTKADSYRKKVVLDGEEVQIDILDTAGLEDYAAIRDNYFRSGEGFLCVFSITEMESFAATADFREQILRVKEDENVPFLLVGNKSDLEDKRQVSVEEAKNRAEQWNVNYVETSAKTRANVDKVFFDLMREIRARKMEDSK

[2] = target: T5, RalB (residues 1-185, Q72L) (UniProt P11234 1-185, Q72L); assay: as above; details: both partners purified
T5 construct: source: expressed from pMAT10 as His6-MBP fusion, prepared and cleaved from its tags as described previously
T5 sequence (looked up): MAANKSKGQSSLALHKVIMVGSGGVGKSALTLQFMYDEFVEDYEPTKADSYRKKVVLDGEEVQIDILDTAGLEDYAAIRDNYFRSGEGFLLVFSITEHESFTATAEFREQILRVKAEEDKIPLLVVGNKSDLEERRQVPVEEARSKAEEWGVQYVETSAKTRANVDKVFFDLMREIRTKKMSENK

[3] = target: T6, RalA (residues 1–184, Q72L) (UniProt P11233 1-184, Q72L); assay: scintillation proximity assay (competition); His-tagged wild-type RLIP76 RBD immobilised on SPA beads, fixed [3H]GTP·RalA (100 nM) or [3H]GTP·RalB (250 nM), competitor RBD or peptide titrated; pure competition model, apparent Kd (Ki); details: both partners purified
T6 construct: RalA small GTPase, residues 1-184, constitutively active Q72L; Loaded with [3H]GTP for SPA, with GMPPNP or GDP for fluorescence polarisation; also called RalA·GTP; [3H]-GTP RalA; source: expressed from pMAT10 as His6-MBP fusion, cleaved from its tag as described previously
T6 sequence (looked up): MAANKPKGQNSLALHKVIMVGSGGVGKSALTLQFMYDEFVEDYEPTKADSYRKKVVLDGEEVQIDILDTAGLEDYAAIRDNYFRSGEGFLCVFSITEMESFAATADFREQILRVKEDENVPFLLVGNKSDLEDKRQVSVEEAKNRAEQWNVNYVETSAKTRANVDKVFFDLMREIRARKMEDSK

[4] = target: T7, RalB (residues 1–185, Q72L) (UniProt P11234 1-185, Q72L); assay: as above; details: both partners purified
T7 construct: Loaded with [3H]GTP for SPA, with GMPPNP for ITC, FP and crystallisation; also called RalB·GTP; source: expressed from pMAT10 as His6-MBP fusion, cleaved from its tag as described previously
T7 sequence (looked up): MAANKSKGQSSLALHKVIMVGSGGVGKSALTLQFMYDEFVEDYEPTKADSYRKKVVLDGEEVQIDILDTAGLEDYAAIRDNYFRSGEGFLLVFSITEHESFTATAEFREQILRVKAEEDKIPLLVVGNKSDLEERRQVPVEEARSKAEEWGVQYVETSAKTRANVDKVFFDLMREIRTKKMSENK

[5] = target: T6, RalA (residues 1–184, Q72L); assay: scintillation proximity assay (competition); GST-tagged Sec5 RBD immobilised on SPA beads, fixed [3H]-GTP RalA, peptides or RLIP76 RBD titrated; pure competition model, apparent Kd (Ki); details: both partners purified
[6] = target: T6, RalA (residues 1–184, Q72L); assay: scintillation proximity assay (competition); His-tagged wild-type RLIP76 RBD immobilised on SPA beads, fixed [3H]GTP·RalA (100 nM) or [3H]GTP·RalB (250 nM), competitor RBD or peptide titrated; pure competition model, apparent Kd (Ki); details: both partners purified; remark: listed apart in the source

CC[C@H](C)[C@H](NC(=O)[C@H](CCCNC(=N)N)NC(=O)[C@H](CC(C)C)NC(=O)[C@H](CCC(=O)O)NC(=O)[C@H](CCC(=O)O)NC(=O)[C@H](Cc1c[nH]c2ccccc12)NC(=O)[C@H](CC(C)C)NC(=O)[C@]1(C)CCCC=CCCC[C@](C)(NC(=O)[C@H](CC(C)C)NC(=O)CCOCCOCCNC(=O)c2ccc3c(c2)C(=O)OC32c3ccc(O)cc3Oc3cc(O)ccc32)C(=O)N[C@@H](CCCCN)C(=O)N[C@@H](CCC(=O)O)C(=O)N[C@@H](CCC(=O)O)C(=O)N1)C(=O)N[C@@H](CCCCN)C(=O)N[C@H](C(=O)N[C@@H](C)C(=O)N[C@@H](CCC(=O)O)C(=O)N[C@@H](CCCCN)C(=O)N[C@@H](CCCNC(=N)N)C(=O)N[C@@H](CCCCN)C(=O)N[C@@H](CCCCN)C(=O)N[C@@H](CCCNC(=N)N)C(=O)N[C@@H](CCC(=O)O)C(=O)N[C@@H](C)C(N)=O)[C@@H](C)O [L-sol] ({5FAM-PEG2}-L[S5]KEE[S5]LWEELRIKTAEKRKKREA-NH2; staple 2-6)
Kd RalA·GDP, FP (RalA·GDP): binding was too weak | Kd (RalA·GDP): > 100 µM | Kd RhoA·GMPPNP, FP (RhoA·GMPPNP): binding was too weak | Kd (RhoA·GMPPNP): > 100 µM | Kd Rac1·GMPPNP, FP (Rac1·GMPPNP): binding was too weak | Kd (Rac1·GMPPNP): > 100 µM

ETQAGIKEEIRRQEFLLNSLHRDLQGGIKDLSKWDRAWEVSQILSALRRKLREA [WDASQSR]
apparent Kd RalA, direct SPA (Fig. S2) (RalA; [3H]GTP-labeled RalA titrated, experiment of Fig. S2): no fit could be obtained as binding was too weak; also recorded: did not bind

CC[C@H](C)[C@H](NC(=O)[C@H](CCCNC(=N)N)NC(=O)[C@H](CC(C)C)NC(=O)[C@H](CCC(=O)O)NC(=O)[C@H](CCC(=O)O)NC(=O)[C@H](Cc1c[nH]c2ccccc12)NC(=O)[C@H](CC(C)C)NC(=O)[C@]1(C)CCCC=CCCC[C@](C)(NC(=O)[C@H](CC(C)C)NC(=O)CCOCCOCCNC(=O)c2ccc3c(c2)C(=O)OC32c3ccc(O)cc3Oc3cc(O)ccc32)C(=O)N[C@@H](CCCCN)C(=O)N[C@@H](CCC(=O)O)C(=O)N[C@@H](Cc2c[nH]cn2)C(=O)N1)C(=O)N[C@@H](CCCCN)C(=O)N[C@H](C(=O)N[C@@H](C)C(=O)N[C@@H](CCC(=O)O)C(=O)N[C@@H](CCCNC(=N)N)C(=O)N[C@@H](CCCNC(=N)N)C(=O)N[C@@H](CCCCN)C(=O)N[C@@H](CCCCN)C(=O)N[C@@H](CCCNC(=N)N)C(=O)N[C@@H](CCC(=O)O)C(=O)N[C@@H](C)C(N)=O)[C@@H](C)O [HLR-sol] ({5FAM-PEG2}-L[S5]KEH[S5]LWEELRIKTAERRKKREA-NH2; staple 2-6)
Kd RalA·GDP, FP (RalA·GDP): binding was too weak | Kd (RalA·GDP): > 100 µM | Kd RhoA·GMPPNP, FP (RhoA·GMPPNP): binding was too weak | Kd (RhoA·GMPPNP): > 100 µM | Kd Rac1·GMPPNP, FP (Rac1·GMPPNP): binding was too weak | Kd (Rac1·GMPPNP): > 100 µM

LTTLR mutant: His-tagged RLIP76 RBD consensus sequence lacking the K440P substitution (ETQAGIKEEIRRQEFLLNSLHRDLQGGIKDLSKLTRLWEVTLILRALKRKLREA; also: His-tagged, tag position not given here)
apparent Kd RalA, direct SPA (Fig. S1) (RalA): no fit could be obtained as binding was too weak | apparent Kd RalA, direct SPA (Fig. S1) (RalA; listed as E426L/E427T/Q433T/R434L/T437R): did not bind

B1: SP1, FAM-labelled stapled peptide of the RLIP76 RBD α2 helix (residues 423-446, staple bridging residues 424 to 428) (peptide)
chain: 5FAM-L[S5]KEE[S5]LWEVQRILTALKRKLREA
modifications: staple 2-6
Kd [1]: 17.2 µM | Kd [2]: 4.7 µM

B2: HLR-SP1, FAM-labelled stapled peptide of the RLIP76 RBD α2 helix (residues 423-446) with the HLR substitutions (E427H/Q433L/K440R) (peptide)
chain: 5FAM-L[S5]KEH[S5]LWEVLRILTALRRKLREA
modifications: staple 2-6
Kd [1]: 4.68 µM | Kd [2]: 0.159 µM

B3: RLIP76 RBD WNASELR mutant (domain or fragment)
chain: ETQAGIKEEIRRQEFLLNSLHRDLQGGIKDLSKWNRAWEVSEILLALRRKLREA
notes: RLIP76 residues 423-446 (helix α2); Selected by CIS display; source: E. coli, recombinant; cleaved from its tag
Kd [3]: 2.75 µM | Kd [4]: 10.3 µM

B4: RLIP76 RBD WDASTAY mutant (domain or fragment)
chain: ETQAGIKEEIRRQEFLLNSLHRDLQGGIKDLSKWDRAWEVSTILAALYRKLREA
notes: as for B3
Kd [3]: 0.53 µM | Kd [4]: 1.2 µM

B5: HLR-sol stapled peptide (peptide)
chain: L[S5]KEH[S5]LWEELRIKTAERRKKREA-NH2
modifications: staple 2-6; N-terminus assumed
SMILES: CC[C@H](C)[C@H](NC(=O)[C@H](CCCNC(=N)N)NC(=O)[C@H](CC(C)C)NC(=O)[C@H](CCC(=O)O)NC(=O)[C@H](CCC(=O)O)NC(=O)[C@H](Cc1c[nH]c2ccccc12)NC(=O)[C@H](CC(C)C)NC(=O)[C@]1(C)CCCC=CCCC[C@](C)(NC(=O)[C@@H](N)CC(C)C)C(=O)N[C@@H](CCCCN)C(=O)N[C@@H](CCC(=O)O)C(=O)N[C@@H](Cc2c[nH]cn2)C(=O)N1)C(=O)N[C@@H](CCCCN)C(=O)N[C@H](C(=O)N[C@@H](C)C(=O)N[C@@H](CCC(=O)O)C(=O)N[C@@H](CCCNC(=N)N)C(=O)N[C@@H](CCCNC(=N)N)C(=O)N[C@@H](CCCCN)C(=O)N[C@@H](CCCCN)C(=O)N[C@@H](CCCNC(=N)N)C(=O)N[C@@H](CCC(=O)O)C(=O)N[C@@H](C)C(N)=O)[C@@H](C)O
Kd [5]: 1.74 µM | Kd [6]: 2.97 µM

B6: wt-sol stapled peptide (peptide)
chain: L[S5]KEE[S5]LWEEQRIKTAEKRKKREA-NH2
modifications: staple 2-6; N-terminus assumed
SMILES: CC[C@H](C)[C@H](NC(=O)[C@H](CCCNC(=N)N)NC(=O)[C@H](CCC(N)=O)NC(=O)[C@H](CCC(=O)O)NC(=O)[C@H](CCC(=O)O)NC(=O)[C@H](Cc1c[nH]c2ccccc12)NC(=O)[C@H](CC(C)C)NC(=O)[C@]1(C)CCCC=CCCC[C@](C)(NC(=O)[C@@H](N)CC(C)C)C(=O)N[C@@H](CCCCN)C(=O)N[C@@H](CCC(=O)O)C(=O)N[C@@H](CCC(=O)O)C(=O)N1)C(=O)N[C@@H](CCCCN)C(=O)N[C@H](C(=O)N[C@@H](C)C(=O)N[C@@H](CCC(=O)O)C(=O)N[C@@H](CCCCN)C(=O)N[C@@H](CCCNC(=N)N)C(=O)N[C@@H](CCCCN)C(=O)N[C@@H](CCCCN)C(=O)N[C@@H](CCCNC(=N)N)C(=O)N[C@@H](CCC(=O)O)C(=O)N[C@@H](C)C(N)=O)[C@@H](C)O
Kd [6]: 48.6 µM
